# Data published in the NIST ThermoML archive (doi:10.1016/j.fluid.2013.08.005).
# Values joined by “and” are separate entries in the source; they are usually repeats but may differ in a detail not shown here. Equal values may be shown once. ± gives the expanded uncertainty stated by the source.
# Tests used:
# [1] = molar heat capacity at constant pressure; details: 101 kPa, Liquid, Large sample (1 g) DSC
# [2] = molar heat capacity at constant pressure; mn = molality of the nth substance listed, in mol/kg; details: 101 kPa, Liquid, Large sample (1 g) DSC, m2 = 0
# [3] = mn = molality of the nth substance listed, in mol/kg; details: 298.15 K; 101 kPa; Liquid; Alternating current cell with electrodes; m2 = 0
molar heat capacity at constant pressure ([2]; 298.15 K),molar heat capacity at constant pressure ([2]; 303.15 K),molar heat capacity at constant pressure ([2]; 308.15 K),molar heat capacity at constant pressure ([2]; 313.15 K),electrical conductivity [3],SMILES,molar heat capacity at constant pressure ([1]; 298.15 K),molar heat capacity at constant pressure ([1]; 303.15 K),molar heat capacity at constant pressure ([1]; 308.15 K),molar heat capacity at constant pressure ([1]; 313.15 K)
,,,,,O [water],75.37 ± 1.3 J/K/mol and 75.35 ± 1.3 J/K/mol,75.34 ± 1.3 J/K/mol and 75.32 ± 1.3 J/K/mol,75.33 ± 1.3 J/K/mol and 75.32 ± 1.3 J/K/mol,75.34 ± 1.3 J/K/mol and 75.33 ± 1.3 J/K/mol
75.35 ± 1.3 J/K/mol,75.32 ± 1.3 J/K/mol,75.32 ± 1.3 J/K/mol,75.33 ± 1.3 J/K/mol,,O [water] + CCCCCCCC[N+](C)(C)C.[Br-],,,,
75.37 ± 1.3 J/K/mol,75.34 ± 1.3 J/K/mol,75.33 ± 1.3 J/K/mol,75.34 ± 1.3 J/K/mol,0.239 ± 0.0095 S/m,O [water] + CCCCCC[N+](C)(C)C.[Br-],,,,
